# “And” between values parts separate entries of the source, which are not always exact repeats. Equal entries are not always repeated.
# Assays:
# DU-145 = assay: MTS assay (cytotoxicity); format: cell-based, human; settings: for IC50: DU-145 (prostate), 72 h exposure in the dark, MTS assay, mean of three experiments
# Excerpt: (§1) Reagents were obtained from the indicated suppliers: HBSS without phenol red and trypsin-EDTA (0.25%), Invitrogen/Gibco; PBS, Mediatech; 4′,6-diamidino-2-phenylindole dihydrochloride (DAPI) and DMSO, Sigma-Aldrich; paraformaldehyde, Electron Microscopy Sciences; WGA, Alexa Fluor 488 conjugate, Invitrogen/Molecular Probes; and ProLong Gold Antifade Mountant with DAPI, Life Technologies. Human Cancer Cell Lines. Four cell lines from the NCI60 cell panel (Shoemaker RH (2006) The NCI60 human tumour cell line anticancer drug screen. Nat Rev Cancer 6(10):813-823) representing four distinct tumor types were used in this study: DU-145, prostate; MDA-MB-231, breast; SK-MEL-28, melanoma; and OVCAR-3, ovarian. Cells were grown in RPMI 1640 cell culture medium (Mediatech) containing 2 mM L-glutamine, supplemented with 10% FBS (Omega Scientific), and maintained at 37° C. under 5% CO2 in a humidified incubator.
# (§2) At the time of drug treatment, stock solutions of 1-4 were diluted to 10-fold the desired final test concentrations with RPMI medium 1640. Aliquots of […] of these diluted solutions were added to the appropriate microtiter wells containing 90 μL of medium, resulting in the required final drug concentrations (eight concentrations per compound, ranging from 0.3 to 600 μM). The final concentration of DMSO in test culture was <1%. […] Following 72 h of exposure at 37° C., cell viability was determined using the MTS assay (CellTiter 96 Aqueous One Cell Proliferation Assay; Promega) according to the manufacturer's instructions. Absorbances were measured using a microplate reader (Synergy 4; Biotek Instruments) at 490 nm. Experiments were performed in triplicate and each dose-response curve represents the mean of three or more independent experiments. Spectrophotometric data were analyzed by sigmoid dose-response, nonlinear regression analysis; the IC50, Emax values, and associated SE were calculated using GraphPad Prism 6 (GraphPad Software).
# (§3) The effects of bis-sulfonate, carboxylate, and aminocaproate ring substituents on gallium corrole cytotoxicities were examined using four human cancer cell lines, representing tumors of different origin selected based on previously described sensitivities.
# MDA-MB-231 = assay: MTS assay (cytotoxicity); format: cell-based, human; settings: MDA-MB-231 (breast), 72 h exposure in the dark, mean of three experiments
# Excerpt: as §1, §2, §3
# OVCAR-3 = assay: MTS assay (cytotoxicity); format: cell-based, human; settings: OVCAR-3 (ovarian), 72 h exposure in the dark, mean of three experiments
# Excerpt: as §1, §2, §3
# SK-MEL-28 = assay: MTS assay (cytotoxicity); format: cell-based, human; settings: SK-MEL-28 (melanoma), 72 h exposure in the dark, mean of three experiments
# Excerpt: as §1, §2, §3
# [1] = test system: DU-145, SK-MEL-28, MDA-MB-231, OVCAR-3; assay: Uptake of gallium corroles (ImageXpress confocal), cell lines taken together; format: cell-based, human; settings: 30 μM
# Experimental: The intracellular uptake of gallium corroles was quantified using the ImageXpressultra laser point-scanning confocal microscope (Molecular Devices). The fluorescence image acquisition settings were as previously reported (Lim P, et al. (2012), Chem Res Toxicol 25(2):400-409.). Cells (DU-145, SK-MEL-28, MDA-MB-231, and OVCAR-3) were seeded in 96-well dishes (8×10^3 cells per well in 0.1 mL) and allowed to attach overnight. Complex 1, 2, 3, or 4 was added directly to cell media at 30 μM final concentration or media only control, and incubated for 0.25, 1, 3, or 24 h at 37° C. in the dark under a 5% CO2 atmosphere. Cells were fixed and labeled in situ with WGA-Alexa Fluor 488 conjugate and DAPI to allow for the identification of cell boundary and nucleus, respectively. The quantification of blue (DAPI) fluorescence signals in each sample yielded the total number of cells in that population. Corresponding determination of red (corrole) fluorescence within each cell, corrected for background fluorescence from untreated cells, provided the number of cells containing corroles. For each corrole concentration at various time points, fluorescence data were obtained for 1,000-22,000 individual cells. Data acquisitions and analyses were performed as described (Lim P, et al. (2012), Chem Res Toxicol 25(2):400-409). The percentage of corrole-positive cells and the median fluorescence intensity (median RFU) for each treatment were plotted in a three-axis graph using Microsoft Office Excel 2007 (Microsoft Corporation).
# To quantify the kinetics of intracellular uptake and accumulation of each derivative, ImageXpressultra, a laser point-scanning confocal microscope, was used for analyses. […] Cells were incubated at 37° C. in the dark for 0.25, 1, 3, or 24 h. […] Within 15 min, Complex 4 fluorescence was observable in ˜80% of ovarian cancer cells, 97% of breast cancer cells, and >99% of prostate cancer and melanoma cells, whereas up to 3 and 24 h were required to label >80% of cells from all four cancer lines with Complexes 3 and 2, respectively. […]
# human cancer cells = settings: previous work, cited from earlier work
# murine model animals = settings: previous work; cited from earlier work
# MDA-MB-231 cells = settings: literature values, read-out: IC50 reported for cisplatin; cited from earlier work
Compound,IC50 (DU-145) [µM],IC50 (MDA-MB-231) [µM],IC50 (OVCAR-3) [µM],IC50 (SK-MEL-28) [µM],"effect of pyridinium substitution (in place of bis-sulfonic acids) on uptake, activity, toxicity (human cancer cells)",other results
"Fc1c(F)c(F)c(C2=C3C=CC4=[N+]3[Ga-]35[n]6c2ccc6C(c2c(F)c(F)c(F)c(F)c2F)=c2ccc([n]23)=C(c2c(F)c(F)c(F)c(F)c2F)c2ccc4[n]25)c(F)c1F (stereo not shown) [Complex 1, gallium(III) tris(pentafluorophenyl)corrole]",135,101,58.1,61.3,–,"time required for significant uptake (≥80% cells) ([1]; melanoma, ovarian, and breast cancer cell lines): 24 h"
O=S(=O)(O)C1=CC2=C(c3c(F)c(F)c(F)c(F)c3F)c3ccc4[n]3[Ga-]35[n]6c(cc(S(=O)(=O)O)c6C(c6c(F)c(F)c(F)c(F)c6F)=c6ccc([n]63)=C4c3c(F)c(F)c(F)c(F)c3F)C1=[N+]25 (stereo not shown) [Complex 2],159,129,274,131,–,"IC50 (DU-145; listed as 2): 159 µM; time required to label >80% of cells from all four cancer lines ([1]; 37° C., dark): ≤ 24 h; antitumor activity in vitro (human cancer cells; human cancer cells): potent antitumor activity; mechanism of cytotoxicity: cell cycle effect (human cancer cells; numerous cancer cell lines in vitro): induce cell cycle arrest at late M phase; antitumor activity in vivo (murine model animals): potent antitumor activity"
O=C(O)C1=CC2=[N+]3C1=C(c1c(F)c(F)c(F)c(F)c1F)c1ccc4[n]1[Ga-]31[n]3c(ccc32)C(c2c(F)c(F)c(F)c(F)c2F)=c2ccc([n]21)=C4c1c(F)c(F)c(F)c(F)c1F (stereo not shown) [Complex 4],12.9,15.3,11.1,4.8,–,"IC50 lower than bis-sulfonated Complex 2 (DU-145; DU-145, 72 h, MTS): −12 fold"
COc1ccc(C2=c3ccc4[n]3[Mn-]35[n]6c(ccc62)C(c2cc[n+](C)cc2)=C2C=CC(=[N+]23)c2ccc([n]25)C=4c2cc[n+](C)cc2)cc1 (stereo not shown) [Complex 5],–,–,–,–,improve uptake and activity,–
C[n+]1ccccc1C1=C2C=CC3=[N+]2[Mn-]24[n]5c1ccc5C(c1cccc[n+]1C)=c1ccc([n]12)=C(c1cccc[n+]1C)c1ccc3[n]14 (stereo not shown) [Complex 6],–,–,–,–,completely ablated toxicity,–
N.N.[Cl][Pt][Cl] [cisplatin],–,–,–,–,–,IC50 (MDA-MB-231 cells): 46.4 µM and 39 µM

# Source: patent US10035806B2, “Derivatized corroles and metallocorroles and their use as imaging and therapeutic agents” (CALIFORNIA INSTITUTE OF TECHNOLOGY, priority 2015, dated 2018)
